Source: US9145411B2, “Substituted amino-pyrimidine derivatives” (Asana Biosciences, LLC, priority 2012, dated 2015)

Legend:
PI3Kα (wild-type) = biological target: T1, PI3Kα (wild-type) (Homo sapiens, UniProt P42336); experiment: PI3 Kinase TR-FRET assay, PI3Kα (wild-type); assay type: biochemical; settings: wild-type P110/P85α, 10 μM ATP
T1 construct: made in house; host or cells: SF9 insect cells
Summary of the method: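 Sf9-expressed, Ni-purified p110/p85α (5 ng) with PIP2 was preincubated with compound for 60 min at room temperature in buffer with 40 mM MgCl2 and 5 mM DTT. The reaction ran 30 min at room temperature with 10 μM PIP2 and 10 μM ATP. The TR-FRET 665/615 nm ratio was used to derive IC50 from dose-response curves.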

pAkt(T308) = experiment: In-cell Western assay, pAkt(T308), PC3 cells; assay type: cell-based; settings: Homo sapiens, PC-3, 2 hours incubation
Description: (§1) Cells from human prostate cancer cell line PC3 (American Type Culture Collection (ATCC), Manassas, Va. 20108 USA) were seeded at an optimal density of 22,000 cell/well in 96-well plates containing Ham's F12K medium (90 μL) and incubated overnight. The compound dilutions were carried out in 100% DMSO followed by a dilution in the medium. Test compounds were added in serial dilutions to the wells and incubated for 2 hours. The cells were washed and fixed with 4% paraformaldehyde. After incubation at room temperature for 1 hour in the dark, blocking was done for 2 hours at room temperature. Primary antibodies for pAkt(S473) ([…] phosphorylated at serine 473), pAkt(T308) (Akt phosphorylated at threonine 308) and for pS6RP (S235/236) (phosphorylated at serine 235/236) (commercially available from Cell Signaling Technology®, whose protocol was followed for the in-cell western assay, were diluted to the required concentration and added to the corresponding wells followed by overnight incubation at 4° C. Eu-labeled rabbit (PE) (Perkin-Elmer USA catalog #AD0106) secondary antibody was added and incubated for 2 hours at room temperature. Delfia® enhancement solution (cat #1244-105, Perkin Elmer USA) was subsequently added to the plate before taking the reading at 615 nm with excitation wavelength of 340 nm, after which 0.5 μg/mL of Hoechst® 33258 dye (Catalog #86140-5, Sigma) was added to the plate and fluorescence emission was read at 460 nm with 355 nm excitation, to evaluate the correction factor. IC50 values were calculated using a sigmoidal dose-response curve fit in GraphPad Prism® v5 software.

PC3 cells = experiment: XTT assay for cell viability, PC3 cells; assay type: cell-based; settings: Homo sapiens, PC-3; PC3 cell proliferation, 96 hours
Summary of the method: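 Log-phase PC3 cells (1000/well) were seeded for 24 h, then exposed to serially diluted compounds (DMSO dilutions) for 96 h. Viability was measured by XTT dye conversion at 37 °C, with absorbance read at 465 nm. EC50 was obtained from a sigmoidal dose-response fit.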

pS6RP (S235/236) = experiment: In-cell Western assay, pS6RP (S235/236), PC3 cells; assay type: cell-based; settings: Homo sapiens, PC-3, 2 hours incubation
Description: as §1

pAkt(S473) = experiment: In-cell Western assay, pAkt(S473), PC3 cells; assay type: cell-based; settings: Homo sapiens, PC-3, 2 hours incubation
Description: as §1

mTOR kinase = biological target: T2, mTOR kinase (Homo sapiens, UniProt P42345); experiment: mTOR kinase TR-FRET assay; assay type: biochemical; settings: 20 μM ATP
T2 construct: purchased Millipore, USA
Summary of the method: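 Test compounds were pre-incubated 60 min with mTOR (5 ng), then ULight-p70 S6K (Thr389) peptide (50 nM) and ATP (20 μM) were added in HEPES 50 mM pH 7.5, EGTA, MnCl2 3 mM. After 60 min at room temperature, EDTA stop and Eu-anti-phospho antibody TR-FRET (665/615 nm) gave IC50 from sigmoidal variable-slope fits.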

T2 sequence (P42345 1362-2549 limits assumed): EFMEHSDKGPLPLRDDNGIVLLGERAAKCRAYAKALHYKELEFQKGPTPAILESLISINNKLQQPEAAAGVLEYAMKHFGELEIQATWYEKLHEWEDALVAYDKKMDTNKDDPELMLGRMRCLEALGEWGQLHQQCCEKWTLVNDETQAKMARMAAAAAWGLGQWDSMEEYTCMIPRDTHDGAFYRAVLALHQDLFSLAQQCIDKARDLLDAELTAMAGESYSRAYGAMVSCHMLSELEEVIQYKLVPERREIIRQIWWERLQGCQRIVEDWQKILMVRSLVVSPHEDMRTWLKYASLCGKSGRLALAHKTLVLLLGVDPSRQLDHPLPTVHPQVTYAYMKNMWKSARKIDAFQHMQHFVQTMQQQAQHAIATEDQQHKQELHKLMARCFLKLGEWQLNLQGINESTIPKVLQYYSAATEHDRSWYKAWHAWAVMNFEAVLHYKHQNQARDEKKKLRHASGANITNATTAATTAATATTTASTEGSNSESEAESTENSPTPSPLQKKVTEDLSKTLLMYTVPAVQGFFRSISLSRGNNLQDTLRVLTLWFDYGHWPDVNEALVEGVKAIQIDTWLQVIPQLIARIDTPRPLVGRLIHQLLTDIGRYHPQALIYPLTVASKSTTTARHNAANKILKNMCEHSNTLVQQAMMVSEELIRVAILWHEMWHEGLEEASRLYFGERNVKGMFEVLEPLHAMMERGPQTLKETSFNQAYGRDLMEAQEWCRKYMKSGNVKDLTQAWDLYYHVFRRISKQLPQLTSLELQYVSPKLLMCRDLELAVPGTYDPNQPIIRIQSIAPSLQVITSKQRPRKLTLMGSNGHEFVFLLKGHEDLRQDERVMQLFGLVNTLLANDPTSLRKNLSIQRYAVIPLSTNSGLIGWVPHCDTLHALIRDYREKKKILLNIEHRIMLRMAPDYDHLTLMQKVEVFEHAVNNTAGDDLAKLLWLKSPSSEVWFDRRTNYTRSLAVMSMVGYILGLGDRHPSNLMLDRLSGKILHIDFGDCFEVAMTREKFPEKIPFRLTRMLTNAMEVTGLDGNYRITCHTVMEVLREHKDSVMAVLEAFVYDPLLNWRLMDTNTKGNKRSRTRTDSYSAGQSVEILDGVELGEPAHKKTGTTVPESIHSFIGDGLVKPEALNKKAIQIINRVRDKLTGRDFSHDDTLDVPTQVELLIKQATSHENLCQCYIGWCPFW
T1 sequence (P42336 whole entry, species assumed): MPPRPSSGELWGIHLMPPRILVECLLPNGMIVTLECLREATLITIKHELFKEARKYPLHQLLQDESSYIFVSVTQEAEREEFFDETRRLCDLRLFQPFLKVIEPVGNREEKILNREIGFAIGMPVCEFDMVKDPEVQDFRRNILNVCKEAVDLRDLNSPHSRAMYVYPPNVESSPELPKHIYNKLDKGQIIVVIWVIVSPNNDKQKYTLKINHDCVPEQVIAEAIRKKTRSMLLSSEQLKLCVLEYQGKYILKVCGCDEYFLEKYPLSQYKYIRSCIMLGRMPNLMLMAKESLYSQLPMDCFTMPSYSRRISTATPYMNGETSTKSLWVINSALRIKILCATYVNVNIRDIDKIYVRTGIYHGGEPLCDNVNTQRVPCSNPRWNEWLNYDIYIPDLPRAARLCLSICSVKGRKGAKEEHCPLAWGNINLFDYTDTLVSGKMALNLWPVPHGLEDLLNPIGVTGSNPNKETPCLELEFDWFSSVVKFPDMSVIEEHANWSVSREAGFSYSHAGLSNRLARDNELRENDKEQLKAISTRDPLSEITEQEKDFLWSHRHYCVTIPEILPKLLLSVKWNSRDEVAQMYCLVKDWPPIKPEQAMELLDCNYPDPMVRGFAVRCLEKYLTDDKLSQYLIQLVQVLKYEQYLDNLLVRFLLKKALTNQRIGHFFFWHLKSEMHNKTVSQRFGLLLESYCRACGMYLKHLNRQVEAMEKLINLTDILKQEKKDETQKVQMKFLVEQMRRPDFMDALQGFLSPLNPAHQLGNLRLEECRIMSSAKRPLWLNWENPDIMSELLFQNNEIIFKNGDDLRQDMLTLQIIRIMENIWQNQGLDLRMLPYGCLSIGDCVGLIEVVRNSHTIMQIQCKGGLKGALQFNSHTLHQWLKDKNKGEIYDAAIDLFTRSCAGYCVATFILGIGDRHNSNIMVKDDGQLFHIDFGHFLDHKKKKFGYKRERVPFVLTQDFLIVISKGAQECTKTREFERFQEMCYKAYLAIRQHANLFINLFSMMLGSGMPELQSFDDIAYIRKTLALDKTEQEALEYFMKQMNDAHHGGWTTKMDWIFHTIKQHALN
T1 sequence (P27986 whole entry partner, species assumed): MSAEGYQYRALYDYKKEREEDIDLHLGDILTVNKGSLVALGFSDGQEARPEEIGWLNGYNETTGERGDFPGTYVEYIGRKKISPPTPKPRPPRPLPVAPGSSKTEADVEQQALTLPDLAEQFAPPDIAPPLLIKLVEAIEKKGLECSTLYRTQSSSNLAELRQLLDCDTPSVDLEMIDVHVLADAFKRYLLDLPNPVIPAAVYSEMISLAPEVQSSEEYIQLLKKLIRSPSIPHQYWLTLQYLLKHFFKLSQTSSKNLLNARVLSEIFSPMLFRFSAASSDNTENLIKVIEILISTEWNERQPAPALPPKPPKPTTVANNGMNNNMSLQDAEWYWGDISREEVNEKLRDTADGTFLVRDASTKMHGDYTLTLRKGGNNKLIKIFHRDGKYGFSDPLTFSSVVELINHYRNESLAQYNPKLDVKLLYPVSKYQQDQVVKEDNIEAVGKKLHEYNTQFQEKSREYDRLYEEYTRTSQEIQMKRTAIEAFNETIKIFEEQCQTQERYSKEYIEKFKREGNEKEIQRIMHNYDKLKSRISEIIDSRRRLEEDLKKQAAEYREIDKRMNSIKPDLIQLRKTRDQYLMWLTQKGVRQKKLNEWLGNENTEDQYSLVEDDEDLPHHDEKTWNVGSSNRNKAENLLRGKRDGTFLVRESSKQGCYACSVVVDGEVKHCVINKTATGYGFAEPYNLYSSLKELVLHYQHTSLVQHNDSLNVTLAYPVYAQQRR

Compound | IC50 (PI3Kα (wild-type)) [µM] | IC50 (pAkt(T308)) [µM] | IC50 (PC3 cells) [µM] | IC50 (pS6RP (S235/236)) [µM] | IC50 (pAkt(S473)) [µM] | IC50 (mTOR kinase) [µM]
CS(=O)(=O)c1cccc(-c2ccc3c(N4CCOCC4)nc(-c4cnc(N)nc4)nc3c2)c1 [Example 1, 5-(7-(3-(Methylsulfonyl)phenyl)-4-morpholinoquinazolin-2-yl)pyrimidin-2-amine] | 0.05 to 0.2 | 0.501 to 5 | 0.501 to 5 | 0.1 to 0.5 | 0.1 to 0.5 | 0.05 to 0.2
CS(=O)(=O)c1cccc(-c2cc3nc(-c4cnc(N)nc4)nc(N4CCOCC4)c3cc2F)c1 [Example 2, 5-(6-Fluoro-7-(3-(methylsulfonyl)phenyl)-4-morpholinoquinazolin-2-yl)pyrimidin-2-amine] | < 0.05 | – | 0.501 to 5 | 0.501 to 5 | – | 0.05 to 0.2
CS(=O)(=O)c1cccc(-c2cnc3c(N4CCOCC4)nc(-c4cnc(N)nc4)nc3c2)c1 [Example 20, 5-(7-(3-(methyl-sulfonyl)phenyl)-4-morpholinopyrido[3,2-d]-pyrimidin-2-yl)pyrimidin-2-amine] | < 0.05 | – | 0.1 to 0.5 | 0.1 to 0.5 | – | < 0.05
Nc1ncc(-c2nc(N3CCOCC3)c3ncc(-c4cncnc4)cc3n2)cn1 [Example 23, 5-(4-morpholino-7-(pyrimidin-5-yl)-pyrido[3,2-d]pyrimidin-2-yl)pyrimidin-2-amine] | < 0.05 | – | > 1 | 0.501 to 5 | 0.1 to 0.5 | 0.05 to 0.2
CC(O)C(=O)Nc1cccc(-c2cnc3c(N4CCOCC4)nc(-c4cnc(N)nc4)nc3c2)c1 (stereo not drawn) [Example 45, N-(3-(2-(2-amino-pyrimidin-5-yl)-4-morpholinopyrido[3,2-d]pyrimidin-7-yl)phenyl)-2-hydroxypropanamide] | < 0.05 | 0.501 to 5 | < 0.1 | 0.1 to 0.5 | – | < 0.05
CN(C)CC(=O)Nc1cccc(-c2cnc3c(N4CCOCC4)nc(-c4cnc(N)nc4)nc3c2)c1 [Example 46, N-(3-(2-(2-amino-pyrimidin-5-yl)-4-morpholinopyrido[3,2-d]pyrimidin-7-yl)phenyl)-2-(dimethylamino)-acetamide] | < 0.05 | – | 0.1 to 0.5 | 0.501 to 5 | – | < 0.05
CC(C)CCC(=O)Nc1cccc(-c2cnc3c(N4CCOCC4)nc(-c4cnc(N)nc4)nc3c2)c1 [Example 66, N-(3-(2-(2-amino-pyrimidin-5-yl)-4-morpholinopyrido[3,2-d]pyrimidin-7-yl)phenyl)-4-methylpentanamide] | < 0.05 | 0.501 to 5 | 0.1 to 0.5 | – | – | < 0.05
Nc1ncc(-c2nc(N3CCOCC3)c3ncc(-c4cccc(NC(=O)c5ccco5)c4)cc3n2)cn1 [Example 67, N-(3-(2-(2-amino-pyrimidin-5-yl)-4-morpholinopyrido[3,2-d]pyrimidin-7-yl)-phenyl)furan-2-carboxamide] | < 0.05 | 0.1 to 0.5 | 0.1 to 0.5 | – | – | < 0.05
Nc1ncc(-c2nc(N3CCOCC3)c3ncc(-c4cccc(NC(=O)c5cnccc5C(F)(F)F)c4)cc3n2)cn1 [Example 68, N-(3-(2-(2-amino-pyrimidin-5-yl)-4-morpholinopyrido[3,2-d]pyrimidin-7-yl)phenyl)-4-(trifluoromethyl)-nicotinamide] | < 0.05 | < 0.1 | 0.1 to 0.5 | – | – | < 0.05
Nc1ncc(-c2nc(N3CCOCC3)c3ncc(-c4cccc(NC(=O)C5CCC(O)CC5)c4)cc3n2)cn1 (stereo not drawn) [Example 70, N-(3-(2-(2-amino-pyrimidin-5-yl)-4-morpholinopyrido[3,2-d]pyrimidin-7-yl)phenyl)-4-hydroxycyclohexane-carboxamide] | < 0.05 | 0.1 to 0.5 | 0.1 to 0.5 | – | – | < 0.05
Nc1ncc(-c2nc(N3CCOCC3)c3ncc(-c4cccc(NC(=O)C5CCC5)c4)cc3n2)cn1 [Example 76, N-(3-(2-(2-amino-pyrimidin-5-yl)-4-morpholinopyrido[3,2-d]pyrimidin-7-yl)-phenyl)cyclobutane-carboxamide] | < 0.05 | < 0.1 | 0.1 to 0.5 | – | – | < 0.05
Nc1ncc(-c2nc(N3CCOCC3)c3ncc(-c4cccc(NS(=O)(=O)C5CC5)c4)cc3n2)cn1 [Example 81, N-(3-(2-(2-amino-pyrimidin-5-yl)-4-morpholinopyrido[3,2-d]pyrimidin-7-yl)-phenyl)cyclopropane-sulfonamide] | < 0.05 | < 0.1 | 0.1 to 0.5 | – | – | < 0.05
Nc1ncc(-c2nc(N3CCOCC3)c3ncc(-c4ccc(NS(=O)(=O)C5CC5)cc4)cc3n2)cn1 [Example 82, N-(4-(2-(2-amino-pyrimidin-5-yl)-4-morpholinopyrido[3,2-d]-pyrimidin-7-yl)phenyl)-cyclopropanesulfonamide] | < 0.05 | < 0.1 | 0.1 to 0.5 | – | – | < 0.05
Nc1ncc(-c2nc(N3CCOCC3)c3ncc(-c4cccc(NC(=O)CN5CCOCC5)c4)cc3n2)cn1 [Example 84, N-(3-(2-(2-aminopyrimidin-5-yl)-4-morpholinopyrido[3,2-d]pyrimidin-7-yl)phenyl)-2-morpholinoacetamide] | < 0.05 | 0.1 to 0.5 | 0.1 to 0.5 | – | – | < 0.05
CN1CCN(CC(=O)Nc2ccc(F)c(-c3cnc4c(N5CCOCC5)nc(-c5cnc(N)nc5)nc4c3)c2)CC1 [Example 85, N-(3-(2-(2-aminopyrimidin-5-yl)-4-morpholinopyrido[3,2-d]pyrimidin-7-yl)-4-fluorophenyl)-2-(4-methylpiperazin-1-yl)-acetamide] | < 0.05 | 0.1 to 0.5 | 0.1 to 0.5 | – | – | < 0.05
Nc1ncc(-c2nc(N3CCOCC3)c3ncc(-c4cc(NC(=O)C5CC5)ccc4F)cc3n2)cn1 [Example 95, N-(3-(2-(2-amino-pyrimidin-5-yl)-4-morpholinopyrido[3,2-d]-pyrimidin-7-yl)-4-fluorophenyl)cyclopropane-carboxamide] | < 0.05 | – | 0.1 to 0.5 | 0.1 to 0.5 | < 0.1 | 0.05 to 0.2
CNC(=O)c1cccc(-c2cnc3c(N4CCOCC4)nc(-c4cnc(N)nc4)nc3c2)c1 [Example 103, 3-(2-(2-aminopyrimidin-5-yl)-4-morpholinopyrido[3,2-d]-pyrimidin-7-yl)-N-methylbenzamide] | < 0.05 | < 0.1 | < 0.1 | – | – | 0.05 to 0.2
CCC(=O)Nc1cccc(-c2cnc3c(N4CCOCC4)nc(-c4cnc(N)nc4)nc3c2)c1 [Example 104, N-(3-(2-(2-amino-pyrimidin-5-yl)-4-morpholinopyrido[3,2-d]-pyrimidin-7-yl)-phenyl)propionamide] | < 0.05 | < 0.1 | 0.1 to 0.5 | – | – | < 0.05
CC(C)C(=O)Nc1cccc(-c2cnc3c(N4CCOCC4)nc(-c4cnc(N)nc4)nc3c2)c1 [Example 105, N-(3-(2-(2-amino-pyrimidin-5-yl)-4-morpholinopyrido[3,2-d]-pyrimidin-7-yl)-phenyl)isobutyramide] | < 0.05 | 0.501 to 5 | 0.1 to 0.5 | – | – | < 0.05
CC(C)(O)c1cccc(-c2cnc3c(N4CCOCC4)nc(-c4cnc(N)nc4)nc3c2)c1 [Example 109, 2-(3-(2-(2-amino-pyrimidin-5-yl)-4-morpholinopyrido[3,2-d]pyrimidin-7-yl)-phenyl)propan-2-ol] | < 0.05 | 0.501 to 5 | 0.1 to 0.5 | – | – | 0.05 to 0.2
CC(C)(C)C(=O)Nc1cccc(-c2cnc3c(N4CCOCC4)nc(-c4cnc(N)nc4)nc3c2)c1 [Example 118, N-(3-(2-(2-amino-pyrimidin-5-yl)-4-morpholinopyrido[3,2-d]pyrimidin-7-yl)-phenyl)pivalamide] | < 0.05 | – | 0.501 to 5 | 0.501 to 5 | 0.501 to 5 | < 0.05
